Measurements taken from patent US20130324522A1, “INSECT ODORANT RECEPTOR ANTAGONISTS” (THE ROCKEFELLER UNIVERSITY, priority 2010, published 2013).

Tests used:
[1] = tested on: Drosophila melanogaster; test: Fly two-choice behavior assay; type: in vivo
Procedure: Male flies (Drosophila melanogaster) of the w^1118 genotype were “wet-starved” for 24 hours in plastic culture vials lacking food but supplemented with wet cotton plugs on the bottom. After the 24 hour fasting period before the assay, flies were placed into a two-choice behavior chamber. This two-choice chamber consists of one 15 cm Petri dish with two round holes (2.2 cm diameter) that were punched along the midline at an equal distance (2.9 cm) from the rim. Two small plastic vials were connected to the dish and plugged with rigid cotton plugs perforated with 1 mL pipette tips. The bottom of each trap vial was humidified with the same cotton plugs used to plug the vial by soaking the plug in deionized water for a few seconds until it was fully wetted. Each trap contained a small filter paper strip with 10 μL of either water or pure odor (3-methyl-thio-1-propanol). Flies could enter one of the two traps through a plastic pipette tip (1 mL) inserted into top of each vial. 10 μL of RU-14, or solvent (100% ethanol) or DEET was placed on small circular filter paper, and introduced into the pipette tips at the entrance. […] After 24 hours, flies were counted and a response was computed by calculating the percent of flies in each trap. Significance was assessed using the Mann-Whitney U-test. […]

[2] = tested on: Aedes aegypti; test: Mosquito two-port olfactometer behavioral assay; type: in vivo; conditions: 3.5 mg dose; female mosquitoes, human hand odor and CO2, two-port olfactometer
Procedure: Female Aedes aegypti Orlando mosquitoes (8-11 days old) were used in this assay. Larvae were hatched from dried egg papers and were reared in pans with deionized water supplemented with two tablets of fish food “TetraMin®” from Tetra every day. Pupae were transferred to cages and maintained before and after eclosion at 25° C. and 70-80% humidity with a 12 hr light: 12 hr dark photocycle. Adults were fed a 10% corn syrup solution and were free to mate with each other. One day prior to the assay, females were separated and placed into starvation cartridges (each containing 20 mosquitoes) without any food or water. The cartridges were placed at 25° C. and 70-80% humidity overnight (>l4hr).
A two-port olfactometer, adapted from Gouck (Gouck, H. K. Host preferences of various strains of Aedes aegypti and Aedes simpsoni as determined by an olfactometer. Bull. World Health Org. 47:680-683, 1972) was used to assess the repellent characteristic of small compounds by measuring mosquito host-seeking preference to human odor with a compound or its solvent. […] After 8 minutes, the number of mosquitoes in the trapping chambers (“attracted”) and main compartment (“not-attracted”) was counted. Data were expressed as % attracted/% activated. Significance was assessed using the analysis of variance, ANOVA. […] Significance was assessed using the Mann-Whitney U-test. […]

| SMILES | inhibition of host-seeking behavior [2] | further results |
| --- | --- | --- |
| CCN(CC)C(=O)c1cccc(C)c1 [DEET, N,N-diethyl-m-toluamide, reference compound] | – | suppression of 3MTP attraction ([1]; range of 1 mg to 10 mg): significant suppression |
| CN(Cc1nccn1Cc1c(F)cccc1Cl)C(=O)C1CCCC1 [RU-I5] | significant inhibition | – |
| Fc1cccc(Cl)c1Cn1ccnc1CN(CC1CCCC1)C1CC1 [RU-I4] | – | suppression of 3MTP attraction ([1]; 3.5 mg dose): significant suppression |
| O=C(C1CCCC1)N(Cc1nccn1CCc1c(F)cccc1Cl)C1CC1 [RU-I2] | significant inhibition | – |
